# Experimental data taken from PubChem BioAssay AID624076 (Broad Institute, 2012).
# Activity calls are given as the source filed them. The rule behind the calls is not given here.
# Experiment: PubChem AID 624076
# Details: Carna kinase panel, IMAP FP / mobility shift, at 10 µM, active compounds read high
smiles,measurement,setting,value
Cc1cnc(-c2cnc(NCCNc3ccc(C#N)cn3)nc2-c2ccc(Cl)cc2Cl)[nH]1,inhibition,ABL(E255K),-2.21% (inactive)
same,inhibition,ABL(T315I),3.27% (inactive)
same,inhibition,AKT2,0.832% (inactive)
same,inhibition,AKT3,0% (inactive)
same,inhibition,ALK(R1275Q),-2.15% (inactive)
same,inhibition,ARG,-1.99% (inactive)
same,inhibition,AXL,6.91% (inactive)
same,inhibition,AurB,2.87% (inactive)
same,inhibition,AurC,6.65% (inactive)
same,inhibition,BMPR1A,-9.7% (inactive)
same,inhibition,BRAF(V600E),14% (inactive)
same,inhibition,BRAF,53.8%
same,inhibition,BRK,-3.52% (inactive)
same,inhibition,BRSK1,10.2% (inactive)
same,inhibition,BTK,-3.98% (inactive)
same,inhibition,CDC7,-7.36% (inactive)
same,inhibition,CDK3,42.4% (inactive)
same,inhibition,CDK5,51.2%
same,inhibition,CDK9,88.1%
same,inhibition,CHK2,4.54% (inactive)
same,inhibition,CK1e,10.4% (inactive)
same,inhibition,CK1g1,85.8%
same,inhibition,CK2a2/b,48.7% (inactive)
same,inhibition,CK1d,23.2% (inactive)
same,inhibition,CLK1,70.5%
same,inhibition,CLK2,47.6% (inactive)
same,inhibition,COT,-1.49% (inactive)
same,inhibition,CRIK,1.36% (inactive)
same,inhibition,CTK,-2.12% (inactive)
same,inhibition,CaMK2b,0.457% (inactive)
same,inhibition,CaMK4,6.27% (inactive)
same,inhibition,CaMK1d,2.64% (inactive)
same,inhibition,DAPK1,0.121% (inactive)
same,inhibition,DCAMKL2,4.09% (inactive)
same,inhibition,DLK,-12.2% (inactive)
same,inhibition,DYRK1B,20.8% (inactive)
same,inhibition,DYRK2,17.2% (inactive)
same,inhibition,EGFR(L861Q),1.1% (inactive)
same,inhibition,EML4-ALK,-2.55% (inactive)
same,inhibition,EPHA3,-5.65% (inactive)
same,inhibition,EPHA5,-4.24% (inactive)
same,inhibition,EPHA8,-7.66% (inactive)
same,inhibition,EPHB1,0.223% (inactive)
same,inhibition,EPHB4,-0.865% (inactive)
same,inhibition,FGFR1,13.1% (inactive)
same,inhibition,FGFR3(K650E),12.5% (inactive)
same,inhibition,FGFR3(K650M),11.8% (inactive)
same,inhibition,FGFR4(N535K),3.65% (inactive)
same,inhibition,FGFR4(V550L),7.1% (inactive)
same,inhibition,FGFR4,1.13% (inactive)
same,inhibition,FLT4,40.4% (inactive)
same,inhibition,FMS,9.78% (inactive)
same,inhibition,GSK3a,99.9%
same,inhibition,HER4,-8.68% (inactive)
same,inhibition,HIPK1,15.1% (inactive)
same,inhibition,HIPK3,11% (inactive)
same,inhibition,Haspin,9.76% (inactive)
same,inhibition,IGF1R,0.373% (inactive)
same,inhibition,IKKb,7.11% (inactive)
same,inhibition,IRAK4,-0.123% (inactive)
same,inhibition,IRR,2.61% (inactive)
same,inhibition,JAK2,5.28% (inactive)
same,inhibition,JAK3,18.1% (inactive)
same,inhibition,JNK1,11.5% (inactive)
same,inhibition,JNK2,18.8% (inactive)
same,inhibition,JNK3,16.9% (inactive)
same,inhibition,KIT(T670I),2.37% (inactive)
same,inhibition,KIT(V560G),8.71% (inactive)
same,inhibition,KIT,5.43% (inactive)
same,inhibition,LATS2,9.73% (inactive)
same,inhibition,LKB1,16.6% (inactive)
same,inhibition,LOK,4.96% (inactive)
same,inhibition,LTK,-0.743% (inactive)
same,inhibition,LYNa,0.071% (inactive)
same,inhibition,MAP2K5,-7.9% (inactive)
same,inhibition,MAP3K1,8.06% (inactive)
same,inhibition,MAP3K3,-21.6% (inactive)
same,inhibition,MAP4K2,12.9% (inactive)
same,inhibition,MARK2,13.3% (inactive)
same,inhibition,MARK4,15.4% (inactive)
same,inhibition,MELK,53.5%
same,inhibition,MER,3.47% (inactive)
same,inhibition,MGC42105,6.7% (inactive)
same,inhibition,MINK,4.57% (inactive)
same,inhibition,MLK1,51.4%
same,inhibition,MLK2,0.179% (inactive)
same,inhibition,MOS,5.27% (inactive)
same,inhibition,MSK1,7.16% (inactive)
same,inhibition,MST2,5.83% (inactive)
same,inhibition,MST4,8.12% (inactive)
same,inhibition,NDR1,2.42% (inactive)
same,inhibition,NEK1,15.9% (inactive)
same,inhibition,NEK2,8.33% (inactive)
same,inhibition,NEK6,2.28% (inactive)
same,inhibition,NEK7,-3.45% (inactive)
same,inhibition,PAK3,14.2% (inactive)
same,inhibition,PAK4,-9.87% (inactive)
same,inhibition,PAK5,7.25% (inactive)
same,inhibition,PASK,8.83% (inactive)
same,inhibition,PBK,3.01% (inactive)
same,inhibition,PDGFRa(V561D),27% (inactive)
same,inhibition,PEK,23.7% (inactive)
same,inhibition,PGK,-2.42% (inactive)
same,inhibition,PHKG1,6.01% (inactive)
same,inhibition,PIM3,-2.3% (inactive)
same,inhibition,PKACg,2.06% (inactive)
same,inhibition,PKCb2,10.5% (inactive)
same,inhibition,PKCd,15.8% (inactive)
same,inhibition,PKCg,8.43% (inactive)
same,inhibition,PKD1,24.8% (inactive)
same,inhibition,PKD2,19.5% (inactive)
same,inhibition,PKD3,40.8% (inactive)
same,inhibition,PKN1,14.8% (inactive)
same,inhibition,PLK1,59.2%
same,inhibition,PLK4,-13.5% (inactive)
same,inhibition,PRKX,3.31% (inactive)
same,inhibition,RET(S891A),32.1% (inactive)
same,inhibition,RET(Y791F),12.8% (inactive)
same,inhibition,ROCK1,0.774% (inactive)
same,inhibition,ROCK2,1.96% (inactive)
same,inhibition,ROS,11.2% (inactive)
same,inhibition,RSK1,19.3% (inactive)
same,inhibition,RSK2,19.9% (inactive)
same,inhibition,RSK4,30.6% (inactive)
same,inhibition,SGK3,0.522% (inactive)
same,inhibition,SIK,2.55% (inactive)
same,inhibition,SLK,43.3% (inactive)
same,inhibition,SRC,2.22% (inactive)
same,inhibition,SRM,-1.3% (inactive)
same,inhibition,SRPK1,17.3% (inactive)
same,inhibition,SYK,1.08% (inactive)
same,inhibition,TAK1-TAB1,34.1% (inactive)
same,inhibition,TIE2,4.06% (inactive)
same,inhibition,TNK1,27.1% (inactive)
same,inhibition,TRKA,9.49% (inactive)
same,inhibition,TSSK3,-3.5% (inactive)
same,inhibition,TTK,-10.8% (inactive)
same,inhibition,TYK2,-0.177% (inactive)
same,inhibition,WNK2,3.23% (inactive)
same,inhibition,p38d,2.62% (inactive)
